The target of one assay is Siglec-1 (sialoadhesin) (Mus musculus, UniProt Q62230). The assay can be described thus: Hapten inhibition assay, Siglec-1 (sialoadhesin). The class given is binding. Particulars: for Siglec-1 (sialoadhesin) rIP: quotient IC50 reference compound / IC50 compound; for Siglec-1 (sialoadhesin) percentage in parentheses below the IC50 bound: at the concentration of the IC50 bound, meaning not defined in the patent.

The target of another assay is T1, Siglec-2 (human CD22) (Homo sapiens, UniProt P20273).
T1 sequence (P20273 20-138 limits assumed): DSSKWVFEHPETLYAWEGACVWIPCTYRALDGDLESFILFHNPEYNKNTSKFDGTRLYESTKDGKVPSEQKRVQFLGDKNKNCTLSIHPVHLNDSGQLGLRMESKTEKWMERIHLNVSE
The assay can be described thus: Hapten inhibition assay, Siglec-2 (human CD22). The class given is binding. The note with it: for Siglec-2 (human CD22) rIP: quotient IC50 reference compound / IC50 compound.

In a further assay the target is T2, Siglec-2 (murine CD22) (Mus musculus, UniProt P35329).
T2 sequence (P35329 22-148 limits assumed): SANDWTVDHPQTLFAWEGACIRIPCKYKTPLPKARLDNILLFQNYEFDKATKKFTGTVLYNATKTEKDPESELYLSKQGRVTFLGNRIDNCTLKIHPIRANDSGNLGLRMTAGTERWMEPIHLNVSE
The assay is described as follows: Hapten inhibition assay, Siglec-2 (murine CD22). The class given is binding. The note with it: for Siglec-2 (murine CD22) rIP: quotient IC50 reference compound / IC50 compound.

Another assay concerns the target T3, Siglec-4a (MAG) (UniProt P20917).
T3 sequence (P20917 1-627): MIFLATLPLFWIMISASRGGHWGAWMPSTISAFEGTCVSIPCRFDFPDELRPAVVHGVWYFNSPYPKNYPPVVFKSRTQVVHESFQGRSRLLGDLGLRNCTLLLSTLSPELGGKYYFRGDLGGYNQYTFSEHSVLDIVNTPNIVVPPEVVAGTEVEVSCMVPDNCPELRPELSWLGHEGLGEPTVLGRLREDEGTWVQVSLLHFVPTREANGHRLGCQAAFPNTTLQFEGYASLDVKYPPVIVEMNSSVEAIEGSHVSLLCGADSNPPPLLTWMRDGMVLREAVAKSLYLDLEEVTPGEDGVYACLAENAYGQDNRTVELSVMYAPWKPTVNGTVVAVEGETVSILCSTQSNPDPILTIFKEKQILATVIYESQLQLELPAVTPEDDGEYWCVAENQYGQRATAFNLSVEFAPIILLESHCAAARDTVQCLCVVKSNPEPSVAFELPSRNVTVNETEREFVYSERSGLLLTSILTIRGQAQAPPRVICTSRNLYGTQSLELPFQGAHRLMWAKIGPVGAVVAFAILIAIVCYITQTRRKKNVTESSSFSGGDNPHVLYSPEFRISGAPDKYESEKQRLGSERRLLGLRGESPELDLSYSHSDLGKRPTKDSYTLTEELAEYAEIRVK
The assay is described as follows: Hapten inhibition assay, Siglec-4a (MAG). Particulars: for Siglec-4a (MAG) rIP: quotient IC50 reference compound / IC50 compound; for IC50: read-out: Siglec-4a (MAG) IC50.

[1] abbreviates: at the concentration of the IC50 bound, meaning not defined in the patent.

Where two headings read alike, the source gives them in different places.

The IC50 is the concentration at which inhibition is half-maximal.

Sequence of Siglec-1 (sialoadhesin) (Q62230 20-136 limits assumed): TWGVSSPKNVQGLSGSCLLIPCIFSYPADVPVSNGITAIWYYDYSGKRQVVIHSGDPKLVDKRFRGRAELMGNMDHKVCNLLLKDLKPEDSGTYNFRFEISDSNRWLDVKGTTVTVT
Description for Siglec-2 (human CD22): (§1) Preferably, the inhibition can be determined by a Hapten inhibition test. […] After overnight incubation at 4° C. the unbound complexes are removed by washing the cells and the bound radioactivity is determined. From the data obtained in this way, the concentrations are found which lead to 50% inhibition of the binding (IC50 values) (5, 6). Specially preferred during the Hapten inhibition test was 10 μl of the complex solution with an activity of 10^3 Bq ^125I mixed with the same volume of a solution of the substance to be investigated (concentrated three times) and incubated at 4° C. for one hour. Then followed the addition of 10 μl of a suspension of target cells, preferably 0.25 to 0.5% of human erythrocytes and incubation overnight at 4° C. The unbound radioactivity is removed by washing the cells five times with 200 μl of washing buffer, preferably phosphate-buffered saline with 0.1% (W/V) bovine serum albumin, and the cell-bound activity is determined with a γ-counter. […] The inhibition is determined in that the value without inhibitor is set to 0% and that with the sialidase-treated cells is set equal to 100%.
(§2) The IC50 value is the siglec inhibitor concentration which leads to 50% inhibition in the binding in the Hapten inhibition assay.
Description for Siglec-2 (murine CD22): as §1, §2
Description for Siglec-4a (MAG): Preferably, the inhibition can be determined by a Hapten inhibition test. […] After overnight incubation at 4° C. the unbound complexes are removed by washing the cells and the bound radioactivity is determined. […] Then followed the addition of 10 μl of a suspension of target cells, preferably 0.25 to 0.5% of human erythrocytes and incubation overnight at 4° C. The unbound radioactivity is removed by washing the cells five times with 200 μl of washing buffer, preferably phosphate-buffered saline with 0.1% (W/V) bovine serum albumin, and the cell-bound activity is determined with a γ-counter. […] The inhibition is determined in that the value without inhibitor is set to 0% and that with the sialidase-treated cells is set equal to 100%.

Turning to `COC1(C(=O)O)CC(O)C(NC(C)=O)C(C(O)C(O)CNC(=O)c2c(F)c(F)c(F)c(F)c2F)O1` (stereo not drawn) [Methyl-α-9-N-(pentafluorbenzoyl)-amino-9-desoxy-Neu5Ac], on Siglec-1 (sialoadhesin), the “Siglec-1 (sialoadhesin) rIP” value amounted to 0.3. Moreover, the IC50 at Siglec-1 (sialoadhesin) (unit inferred) stood at 7 mM; against Siglec-2 (human CD22) (unit inferred) it was 0.36 mM; against Siglec-2 (murine CD22) (unit inferred), 2.5 mM; at Siglec-4a (MAG) (unit inferred) it was 0.107 mM. For the same molecule, the “Siglec-2 (human CD22) rIP” value at Siglec-2 (human CD22) came to 3.3. At Siglec-2 (murine CD22), the “Siglec-2 (murine CD22) rIP” value came to 2.0. The “Siglec-4a (MAG) rIP” value at Siglec-4a (MAG) amounted to 42.
For the molecule `CO[C@]1(C(=O)O)C[C@H](O)[C@@H](NC(C)=O)[C@H]([C@H](O)[C@H](O)CNC(=O)c2cccnc2)O1` [Methyl-α-9-N-(pyridine-3-carbonyl)-amino-9-desoxy-Neu5Ac], the “Siglec-1 (sialoadhesin) rIP” value on Siglec-1 (sialoadhesin) came out at 0.5. Moreover, the “Siglec-2 (human CD22) rIP” value on Siglec-2 (human CD22) is 2.3. The IC50 against Siglec-2 (human CD22) (unit inferred) stood at 0.445 mM; on Siglec-2 (murine CD22) (unit inferred), 0.335 mM; at Siglec-4a (MAG) (unit inferred) it was 0.025 mM. Moreover, the “Siglec-2 (murine CD22) rIP” value on Siglec-2 (murine CD22) turned out to be 14. For the same molecule, the “Siglec-4a (MAG) rIP” value at Siglec-4a (MAG) was 170.
On to `CO[C@]1(C(=O)O)C[C@H](O)[C@@H](NC(C)=O)[C@H]([C@H](O)[C@H](O)CNC(C)=O)O1` [Methyl-α-9-N-acetyl-amino-9-desoxy-Neu5Ac], for which the “Siglec-1 (sialoadhesin) rIP” value on Siglec-1 (sialoadhesin) was 0.2. The half-maximal inhibitory concentration (IC50) turned out to be 3.82 mM against Siglec-1 (sialoadhesin) (unit inferred), 1.8 mM at Siglec-2 (human CD22) (unit inferred), 1.75 mM on Siglec-2 (murine CD22) (unit inferred) and 2.15 mM on Siglec-4a (MAG) (unit inferred). Moreover, at Siglec-2 (human CD22), the “Siglec-2 (human CD22) rIP” value stood at 0.6. In addition, the “Siglec-2 (murine CD22) rIP” value on Siglec-2 (murine CD22) was 2.7. Also, the “Siglec-4a (MAG) rIP” value at Siglec-4a (MAG) was 3.7.
Regarding `CO[C@]1(C(=O)O)C[C@H](O)[C@@H](NC(C)=O)[C@H]([C@H](O)[C@H](O)CNC(=O)c2ccccc2)O1` [Methyl-α-9-N-benzoyl-amino-9-desoxy-Neu5Ac], the “Siglec-1 (sialoadhesin) rIP” value on Siglec-1 (sialoadhesin) worked out at 1.8. Further, the half-maximal inhibitory concentration (IC50) was found to be 0.539 mM on Siglec-1 (sialoadhesin) (unit inferred), 0.29 mM at Siglec-2 (human CD22) (unit inferred), 1.09 mM against Siglec-2 (murine CD22) (unit inferred) and 0.007 mM on Siglec-4a (MAG) (unit inferred). For the same molecule, the “Siglec-2 (human CD22) rIP” value at Siglec-2 (human CD22) was 5.7. On Siglec-2 (murine CD22), the “Siglec-2 (murine CD22) rIP” value is given as 3.7. For the same molecule, the “Siglec-4a (MAG) rIP” value on Siglec-4a (MAG) worked out at 704. Moreover, the “binds stronger to siglec-4a than the reference compound” value on Siglec-4a (MAG) (relative to 2-alpha-methyl-5-N-acetyl-neuraminic acid) is on record as “approximately 704 times”.
With `CO[C@]1(C(=O)O)C[C@H](O)[C@@H](NC(C)=O)[C@H]([C@H](O)[C@H](O)CNC(=O)C2CCCCC2)O1` [Methyl-α-9-N-cyclohexanoyl-amino-9-desoxy-Neu5Ac], the “Siglec-1 (sialoadhesin) percentage in parentheses below the IC50 bound” value at Siglec-1 (sialoadhesin) is on record as “(93%)”. Further, the IC50 on Siglec-1 (sialoadhesin) (bounds given in mM) was more than 1 mM; at Siglec-2 (human CD22) (unit inferred), 0.383 mM; on Siglec-2 (murine CD22) (unit inferred), 0.76 mM; at Siglec-4a (MAG) (unit inferred), 0.11 mM. Further, on Siglec-1 (sialoadhesin), the “Siglec-1 (sialoadhesin) rIP” value is given as 0.2. For the same molecule, the “Siglec-2 (human CD22) rIP” value on Siglec-2 (human CD22) stood at 4.1. The “Siglec-2 (murine CD22) rIP” value at Siglec-2 (murine CD22) turned out to be 6.9. The “Siglec-4a (MAG) rIP” value on Siglec-4a (MAG) was found to be 50.
With `CO[C@]1(C(=O)O)C[C@H](O)[C@@H](NC(C)=O)[C@H]([C@H](O)[C@H](O)CO)O1` [Methyl-α-Neu5Ac, reference compound], the “Siglec-1 (sialoadhesin) rIP” value on Siglec-1 (sialoadhesin) was 1.0. The half-maximal inhibitory concentration (IC50) on Siglec-1 (sialoadhesin) (unit inferred) turned out to be 0.884 mM; on Siglec-2 (human CD22) (unit inferred) it was 1.39 mM; on Siglec-2 (murine CD22) (unit inferred), 4.69 mM; on Siglec-4a (MAG) (unit inferred), 4.72 mM. Further, at Siglec-2 (human CD22), the “Siglec-2 (human CD22) rIP” value is 1.0. Moreover, at Siglec-2 (murine CD22), the “Siglec-2 (murine CD22) rIP” value was determined as 1.0. For the same molecule, at Siglec-4a (MAG), the “Siglec-4a (MAG) rIP” value is on record as 1.0.
On to `COC1(C(=O)O)CC(O)C(O)C(C(O)C(O)CO)O1` (stereo not drawn) [Methyl-α-ketodesoxy-nonulsonic acid], for which, on Siglec-1 (sialoadhesin), the “Siglec-1 (sialoadhesin) percentage in parentheses below the IC50 bound” value is “(74%)”. Besides, the IC50 is more than 1 mM against Siglec-1 (sialoadhesin) (bounds given in mM), more than 1 mM on Siglec-2 (human CD22) (bounds given in mM), more than 2 mM at Siglec-2 (murine CD22) (bounds given in mM) and more than 1 mM at Siglec-4a (MAG) (bounds given in mM). The “Siglec-1 (sialoadhesin) rIP” value on Siglec-1 (sialoadhesin) is reported as less than 0.8. For the same molecule, the “Siglec-2 (human CD22) percentage in parentheses below the IC50 bound” value on Siglec-2 (human CD22) (setting [1]) is listed as “(117%)”. Also, on Siglec-2 (human CD22), the “Siglec-2 (human CD22) rIP” value was <<2. For the same molecule, at Siglec-2 (murine CD22) (setting [1]), the “Siglec-2 (murine CD22) percentage in parentheses below the IC50 bound” value is given as “(74%)”. Moreover, at Siglec-2 (murine CD22), the “Siglec-2 (murine CD22) rIP” value is on record as less than 1.5. Also, the “Siglec-4a (MAG) percentage in parentheses below the IC50 bound” value on Siglec-4a (MAG) (setting [1]) is reported as “(225%)”. Further, the “Siglec-4a (MAG) rIP” value on Siglec-4a (MAG) is <<0.5.
